The record followed here is patent EP3366695B1, “SAPOSIN-A DERIVED PEPTIDES AND USES THEREOF” (Children's Medical Center Corporation, priority 2009, dated 2021).

In assay [1] the test system is p53. Description: p53 expression in prostate fibroblasts, western blot. The class given is cell-based, human. The note with it: PC3 conditioned media in the presence of the inhibitor. As to the method: (§1) Methods of assaying the effects of mutant, fragment or variant Psap on Tsp-1 and p53 expression are described herein. Briefly, full-length, mutant, fragment and variant Psap are applied to the cell cultures prostate fibroblast. The conditioned media from PC3M-LN4 (LN4) and PC3 cells are used as controls, with PC3 as positive/stimulating control and LN4 as negative/inhibiting controls. After a period of […] (∼16 h), the cells are harvested, rinsed, and lysed. The lysates are analyzed for the level of Tsp-1 and p53 expression by western blot analyses, with β-actin as the internal lysate protein loading control. […]
(§2) For Western blotting, cells were harvested by mechanical scraping into 4°C PBS, cell pellets were obtained by removing PBS after centrifugation at 13,000rpm in a Heraeus Biofuge Fresco (Thermo Electron, Asheville, NC) for 2 min. Cells were then lysed in 50 mM Tris-HCl (pH 7.4), 150 mM NaCl, 1 % NP40, 1 mM sodium orthovanadate, 5 mM NaF, 20 mM β-glycerophosphate, and complete protease inhibitor (Roche, Indianapolis, IN) and protein concentrations were determined by the BioRad protein assay (BioRad, Hercules, CA). […] Protein volume intensity was determined using a Bio-Rad Chemi-Doc XRS system (Bio-Rad, CA).
In general terms: In western blotting, separated proteins are transferred to a membrane and probed.

The test system of assay [2] is Tsp-1. Description: Tsp-1 expression in prostate fibroblasts, western blot. In kind it is cell-based, human. The note with it: PC3 conditioned media in the presence of the inhibitor. The procedure:
as §1, §2

The subject of assay [3] is Tsp-1. Description: Tsp-1 expression in WI-38 lung fibroblasts, western blot. In kind it is cell-based, human. The procedure: For Western blotting, cells were harvested by mechanical scraping into 4°C PBS, cell pellets were obtained by removing PBS after centrifugation at 13,000rpm in a Heraeus Biofuge Fresco (Thermo Electron, Asheville, NC) for 2 min. Cells were then lysed in 50 mM Tris-HCl (pH 7.4), 150 mM NaCl, 1 % NP40, 1 mM sodium orthovanadate, 5 mM NaF, 20 mM β-glycerophosphate, and complete protease inhibitor (Roche, Indianapolis, IN) and protein concentrations were determined by the BioRad protein assay (BioRad, Hercules, CA). Fifty micrograms of protein were loaded per well onto a 4-12 % pre-cast Bis-Tris gel (BioRad, Hercules, CA). The protein extracts were electrophoresed and transferred to an immobilon-P membrane (Millipore, Bedford, MA). The membranes were blocked in 5 % nonfat milk and incubated in primary antibody to Tsp-1 (Ab-11, LabVision, Fremont, CA), c-Myc and phospho-Myc (Cell Signaling Technology, Beverly, MA), Prosaposin (Santa Cruz Biotechnology, Santa Cruz, CA), β-actin (AbCam, Cambridge, UK). […] Protein volume intensity was determined using a Bio-Rad Chemi-Doc XRS system (Bio-Rad, CA). […]
Seven 20-amino acid (20-mer) peptides derived from saposin A were tested for ability to stimulate Tsp-1 expression in fibroblasts. […] WI-38 lung fibroblasts were treated with these peptides overnight and the Tsp-1 expression was analyzed by Western blot analysis. […]

For assay [4], the system named is p53. Description: p53 expression in WI-38 fibroblasts, western blot. The class given is cell-based, human. The note with it: cyclic 13-mer plus D4476.
The test system of the next assay is MDM2. Description: MDM2 protein levels in WI-38 fibroblasts, western blot. The class given is cell-based, human. The following applies: cyclic 13-mer plus D4476.
A further assay has as its system thrombospondin-1 (Tsp-1). As to the kind of experiment: Tsp-1 expression in lungs and livers of treated mice, western blot. In kind it is in vivo. As to the method:
The 20-mer […] (SEQ. ID. No. 29) was tested in vivo in mice for their ability to induce Tsp-1 expression. Four mice were treated with the 20-amino acid peptide (residues 31-50 of saposin A) at a dose of 30mg/kg/day in combination with 200uL of conditioned media (CM) from the metastatic prostate cancer cell line PC3M-LN4. […] Another four mice were treated with CM from PC3M-LN4 alone, and a control group of four mice with treated with vehicle (PBS) alone. […] Mice were treated for 9 days after which they were sacrificed and the lungs and livers were harvested and lysed. Tissue lysates were then run on a 4-12% gradient bis-tris polyacrylamide gel and transferred to a nitrocellulose membrane for western blotting with antibodies specific for thrombospondin-1 (Tsp-1) and β-actin.

Setting [5] is: mice treated for 9 days, relative to control (vehicle PBS).
The mark [6] stands for this setting: mice, 30mg/kg/day with 200uL PC3M-LN4 CM, 9 days, compared to PC3M-LN4 CM.

Take `COc1ccc2c(c1)c(C1=C(c3c[nH]c4ccccc34)C(=O)NC1=O)cn2CCCN(C)C` [Gö 6983]: the “stimulation of p53 by PC3 CM” value in the assay on p53 [1] is “abolished the stimulation of Tsp-1 and p53”. In addition, the “stimulation of Tsp-1 by PC3 CM” value in the assay on Tsp-1 [2] is “abolished the stimulation of Tsp-1 and p53”.

On to `NC(=O)c1ccc(-c2nc(-c3ccc4c(c3)OCCO4)c(-c3ccccn3)[nH]2)cc1` [D4476], for which the Tsp-1 protein levels entry in the assay with Tsp-1 [3] (WI-38 fibroblasts, cyclic 13-mer plus D4476) is “reduction of Tsp-1 and p53”. The p53 protein levels result in the assay on p53 [4] is “reduction of Tsp-1 and p53”. Further, the MDM2 protein levels entry in the assay on MDM2 is reported as “increase in MDM2 protein levels”.

On to “LEKTCDWLPKPNMSASCKEI [20-mer, 20-mer peptide, residues 31-50 of saposin A]”, for which the Tsp-1 expression entry in the assay on Tsp-1 [3] (WI-38 fibroblasts treated with peptide) is given as “able to stimulate Tsp-1 expression”. Besides, in the assay with thrombospondin-1 (Tsp-1) (setting [5]), the “Tsp-1 expression in the liver” value is recorded as “stimulated Tsp-1 expression over control” and the “Tsp-1 expression in the lung” value is “stimulated Tsp-1 expression over control”. Further, in the assay with thrombospondin-1 (Tsp-1) (setting [6]), the “stimulated expression of Tsp-1 in the liver” value is recorded as 4 fold and the “stimulated expression of Tsp-1 in the lung” value is reported as 6 fold. Besides, the “level of stimulation of Tsp-1” value with thrombospondin-1 (Tsp-1) (mice, 9 days, compared with positive control PC3 conditioned media) is “greater than that of the weakly metastatic pancreatic cancer cell line PC3”.
